Like-named read-outs stand apart in the source and are kept apart here. Where only a bound is given, the exact number is not on record here.

Assay [1] concerns DLD-1 BRCA2−/− cells. The experiment in a line: Homologous recombination synthetic lethal inhibition of proliferation, DLD-1 BRCA2-/- (Cell Titre Glo 3D). Type of assay: cell-based. The note with it: for IC50: Homo sapiens. In outline:
(§1)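 Cells are seeded in RPMI 1640 (phenol red free, 10% FBS, GlutaMAX) onto pre-dosed compound (10 μM to 0.51 nM, three-fold). Plates are incubated at 37 °C, and medium plus compound are refreshed on day 6. Viability is read by CellTiter-Glo 3D at day 7 (DLD-1) or day 12 (DLD-1 BRCA2−/−), and the IC50 is fitted.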

In assay [2] the test system is DLD-1 cells. The experiment in a line: Inhibition of proliferation, DLD-1 BRCA2 wt control (Cell Titre Glo 3D). Type of assay: cell-based. To be noted: Homo sapiens. In outline: as §1
Where [3] appears, read: DLD-1, 288 h, DLD-1 BRCA2−/− cells, 12 days, read-out: POLQ PD Prolif Lumin BRCA2 −/− mean pIC50 (converted).
Setting [4] is: DLD-1, 168 h, DLD-1 BRCA2 wt cells, 7 days, read-out: POLQ PD Prolif Lumin DLD1 mean pIC50 (converted).
Where [5] appears, read: DLD-1, first proliferation column (c5), taken as DLD-1 BRCA2-/-, read-out: POLQ PD Prolif Lumin (converted).
Setting [6] is: DLD-1, second proliferation column (c6), taken as DLD-1 BRCA2 wt, read-out: POLQ PD Prolif Lumin (converted).
The mark [7] stands for this setting: DLD-1, first proliferation column (c5), DLD-1 BRCA2-/-, read-out: POLQ PD Prolif Lumin (converted).
Where [8] appears, read: DLD-1, second proliferation column (c6), DLD-1 BRCA2 wt control, read-out: POLQ PD Prolif Lumin (converted).
The mark [9] stands for this setting: DLD-1, DLD-1 BRCA2 −/−, mean, read-out: POLQ PD Prolif Lumin BRCA2 −/− mean pIC50 (converted).
Where [10] appears, read: DLD-1, DLD1 BRCA2 wt, mean, read-out: POLQ PD Prolif Lumin DLD1 mean pIC50 (converted).
The mark [11] stands for this setting: DLD-1, DLD-1 BRCA2-/- proliferation, column head only partly shown, read-out: POLQ PD Prolif Lumin (converted).
Setting [12] is: DLD-1, DLD-1 BRCA2 wt control proliferation, column head only partly shown, read-out: POLQ PD Prolif Lumin (converted).

`CC1(Oc2ccnc3c2nc(-c2ccc(OCCN4CCNCC4)cc2Cl)n3Cc2ccccc2)CCC1` [Example P4, 3-benzyl-2-(2-chloro-4-(2-(piperazin-1-yl)ethoxy)phenyl)-7-(1-methylcyclobutoxy)-3H-imidazo[4,5-b]pyridine]: the IC50 in assay [1] (setting [3]) was 316 nM; in assay [2] (setting [4]), 1260 nM.
In the case of `CN(C)CCCOc1ccc(-c2nc3c(OC4(C)CC4)nccc3n2Cc2cc(Cl)ccn2)c(Cl)c1` [Example T377, 3-(3-chloro-4-(1-((4-chloropyridin-2-yl)methyl)-4-(1-methylcyclopropoxy)-1H-imidazo[4,5-c]pyridin-2-yl)phenoxy)-N,N-dimethylpropan-1-amine], the values for the IC50 in assay [1] (setting [5]) and in assay [2] (setting [6]) were 158 nM and greater than 7940 nM, respectively.
Regarding `COc1ccc(Cn2c(-c3ccc(OCCN4CCNCC4)cc3Cl)nc3c(OC4(C)CC4)ncnc32)nc1` [Example T532, 8-(2-chloro-4-(2-(piperazin-1-yl)ethoxy)phenyl)-9-((5-methoxypyridin-2-yl)methyl)-6-(1-methylcyclopropoxy)-9H-purine], the IC50 in assay [1] (setting [7]) was 6310 nM; in assay [2] (setting [8]), greater than 10000 nM.
As to `Cc1ccnc(Cn2c(-c3ccc(OCCN4CCNCC4)cc3Cl)nc3c(OC4(C)CC4)ncnc32)c1C` [Example T597, 8-(2-chloro-4-(2-(piperazin-1-yl)ethoxy)phenyl)-9-((3,4-dimethylpyridin-2-yl)methyl)-6-(1-methylcyclopropoxy)-9H-purine], the IC50 is 2510 nM in assay [1] (DLD-1, first proliferation column, DLD-1 BRCA2-/-, read-out: POLQ PD Prolif Lumin (converted)) and 6310 nM in assay [2] (DLD-1, second proliferation column, DLD-1 BRCA2 wt control, read-out: POLQ PD Prolif Lumin (converted)).
For `CC1(Oc2ncnc3c2nc(-c2ccc(OCCCCCCC(=O)O)cc2Cl)n3Cc2cccc(Cl)c2)CC1` [Example T561, 7-(3-chloro-4-(9-(3-chlorobenzyl)-6-(1-methylcyclopropoxy)-9H-purin-8-yl)phenoxy)heptanoic acid], the results for the IC50 in assay [1] (setting [7]) and in assay [2] (setting [8]) were 39.8 nM and greater than 10000 nM, respectively.
For the compound `CC1(Oc2ccnc3c2nc(-c2ccc(OCCN4CCNCC4)cc2Cl)n3Cc2ccccn2)CCC1` [Example P3, 2-(2-chloro-4-(2-(piperazin-1-yl)ethoxy)phenyl)-7-(1-methylcyclobutoxy)-3-(pyridin-2-ylmethyl)-3H-imidazo[4,5-b]pyridine], the values for the IC50 in assay [1] (setting [3]) and in assay [2] (setting [4]) were 2000 nM and greater than 10000 nM, respectively.
Consider `Cc1ccnc(Cn2c(-c3ccc(OC4CCS(=O)(=O)CC4)cc3Cl)nc3c(OC4(C)CC4)ncnc32)c1` [Example T335, 4-(3-chloro-4-(6-(1-methylcyclopropoxy)-9-((4-methylpyridin-2-yl)methyl)-9H-purin-8-yl)phenoxy)tetrahydro-2H-thiopyran 1,1-dioxide], for which the IC50 is 251 nM in assay [1] (setting [5]) and greater than 10000 nM in assay [2] (setting [6]).
Take `CC(c1cc(Cl)ccn1)n1c(-c2ccc(OCCN3CCNCC3)cc2Cl)nc2c(OC3(C)CC3)ncnc21` (single isomer, unassigned; isomer 2) [Example S5, 8-(2-chloro-4-(2-(piperazin-1-yl)ethoxy)phenyl)-9-(1-(4-chloropyridin-2-yl)ethyl)-6-(1-methylcyclopropoxy)-9H-purine (Isomer 2)]: the “POLQ PD Prolif Lumin BRCA2 −/− mean pIC50” value in assay [1] (DLD-1 BRCA2−/− cells, 12 days) was 6.1. Also, in assay [2] (setting [4]), the IC50 was greater than 10000 nM.
Turning to `CC(=O)N1CC(Oc2ccc(-c3nc4c(OC5(C)CC5)ncnc4n3Cc3cc(C)ccn3)c(Cl)c2)C1` [Example 40, 1-(3-(3-Chloro-4-(6-(1-methylcyclopropoxy)-9-((4-methylpyridin-2-yl)methyl)-9H-purin-8-yl)phenoxy)azetidin-1-yl)ethan-1-one], the IC50 in assay [1] (DLD-1, 288 h, DLD-1 BRCA2−/−, 12 days, Cell Titre Glo 3D, read-out: POLQ PD Prolif Lumin BRCA2 −/− Mean pIC50 (converted)) is 158 nM; in assay [2] (DLD-1, 168 h, DLD-1 (BRCA2 wt control), 7 days, Cell Titre Glo 3D, read-out: POLQ PD Prolif Lumin DLD1 Mean pIC50 (converted)), greater than 10000 nM.
For the compound `Cc1ccnc(Cn2c(-c3ccc(OCCN4CCNCC4)cc3Cl)nc3c(OC4(C)CC4)ncnc32)c1F` [Example T504, 8-(2-chloro-4-(2-(piperazin-1-yl)ethoxy)phenyl)-9-((3-fluoro-4-methylpyridin-2-yl)methyl)-6-(1-methylcyclopropoxy)-9H-purine], the IC50 in assay [1] (setting [7]) is 2000 nM; in assay [2] (setting [8]), greater than 10000 nM.
`CC(C)Oc1ccc2c(n1)nc(-c1ccc(OCCN3CCNCC3)cc1Cl)n2Cc1ccccc1` [Example 8, 1-Benzyl-2-(2-chloro-4-(2-(piperazin-1-yl)ethoxy)phenyl)-5-isopropoxy-1H-imidazo[4,5-b]pyridine]: the values for the IC50 in assay [1] (setting [3]) and in assay [2] (setting [4]) were 1000 nM and 3160 nM, respectively.
With `Cc1cncc(Cn2c(-c3ccc(OCCN4CCNCC4)cc3Cl)nc3c(OC4(C)CC4)ncnc32)c1` [Example T530, 8-(2-chloro-4-(2-(piperazin-1-yl)ethoxy)phenyl)-6-(1-methylcyclopropoxy)-9-((5-methylpyridin-3-yl)methyl)-9H-purine], the results for the IC50 in assay [1] (setting [7]) and in assay [2] (setting [8]) were 1000 nM and greater than 10000 nM, respectively.
For `Cc1ccnc(Cn2c(-c3ccc(CN4CC[C@@H](O)C4)cc3Cl)nc3c(OC4(C)CC4)ncnc32)c1` [Example T353, (R)-1-(3-chloro-4-(6-(1-methylcyclopropoxy)-9-((4-methylpyridin-2-yl)methyl)-9H-purin-8-yl)benzyl)pyrrolidin-3-ol], the IC50 in assay [1] (setting [5]) was 316 nM; in assay [2] (setting [6]), greater than 10000 nM.
Take `Cc1ccnc(Cn2c(-c3cccc(CC(N)=O)c3Cl)nc3c(OC4(C)CC4)ncnc32)c1` [Example T56, 2-(2-chloro-3-(6-(1-methylcyclopropoxy)-9-((4-methylpyridin-2-yl)methyl)-9H-purin-8-yl)phenyl)acetamide]: the IC50 in assay [1] (DLD-1, DLD-1 BRCA2 −/− cells, mean, read-out: POLQ PD Prolif Lumin BRCA2 −/− mean pIC50 (converted)) is 794 nM; in assay [2] (DLD-1, DLD1 BRCA2 wt cells, mean, read-out: POLQ PD Prolif Lumin DLD1 mean PIC50 (converted)) it was greater than 10000 nM.
On to `Cc1scnc1Cn1c(-c2ccc(OCCN3CCNCC3)cc2Cl)nc2c(OC3(C)CC3)ncnc21` [Example K12, 4-((8-(2-chloro-4-(2-(piperazin-1-yl)ethoxy)phenyl)-6-(1-methylcyclopropoxy)-9H-purin-9-yl)methyl)-5-methylthiazole], for which the IC50 in assay [1] (setting [3]) was 1580 nM; in assay [2] (setting [4]), greater than 10000 nM.
For `COc1ccc(C)cc1Cn1c(-c2ccc(OCCC(C)C(=O)O)cc2Cl)nc2c(OC3(C)CC3)ncnc21` (racemic) [Example U1, 4-(3-chloro-4-(9-(2-methoxy-5-methylbenzyl)-6-(1-methylcyclopropoxy)-9H-purin-8-yl)phenoxy)-2-methylbutanoic acid], the values for the IC50 in assay [1] (setting [9]) and in assay [2] (setting [10]) were 50.1 nM and greater than 10000 nM, respectively.
In the case of `Cc1cnc(Cn2c(-c3ccc(OCCN4CCNC[C@@H]4C)cc3Cl)nc3c(OC4(C)CC4)ncnc32)s1` [Example T393, (S)-2-((8-(2-chloro-4-(2-(2-methylpiperazin-1-yl)ethoxy)phenyl)-6-(1-methylcyclopropoxy)-9H-purin-9-yl)methyl)-5-methylthiazole], the IC50 in assay [1] (DLD-1, proliferation, luminescence, taken as DLD-1 BRCA2-/-, read-out: POLQ PD Prolif Lumin (converted)) is 794 nM; in assay [2] (DLD-1, proliferation, luminescence, second Prolif column (c6), taken as DLD-1 BRCA2 wt control, read-out: POLQ PD Prolif Lumin (converted)), greater than 10000 nM.
Regarding `C[C@@H](CCOc1cccc(-c2nc3c(OC4(C)CC4)ncnc3n2Cc2cc(Cl)ccc2F)c1Cl)C(=O)O` [Example U24, (S)-4-(2-chloro-3-(9-(5-chloro-2-fluorobenzyl)-6-(1-methylcyclopropoxy)-9H-purin-8-yl)phenoxy)-2-methylbutanoic acid], the IC50 in assay [1] (setting [9]) was 12.6 nM; in assay [2] (setting [10]) it was greater than 10000 nM.
As to `Cc1cnc(Cn2c(-c3cccc(OCCCN4CC(O)C4)c3Cl)nc3c(OC4(C)CC4)ncnc32)s1` [Example T246, 1-(3-(2-chloro-3-(6-(1-methylcyclopropoxy)-9-((5-methylthiazol-2-yl)methyl)-9H-purin-8-yl)phenoxy)propyl)azetidin-3-ol], the IC50 was 794 nM in assay [1] (setting [11]) and greater than 10000 nM in assay [2] (setting [12]).
Regarding `CC1(Oc2ncnc3c2nc(-c2ccc(OCCN4CCC[C@H]4C(=O)O)cc2Cl)n3Cc2cccc(Cl)c2)CC1` [Example T551, (2-(3-chloro-4-(9-(3-chlorobenzyl)-6-(1-methylcyclopropoxy)-9H-purin-8-yl)phenoxy)ethyl)-L-proline], the figures for the IC50 in assay [1] (setting [7]) and in assay [2] (setting [8]) were 316 nM and greater than 10000 nM, respectively.
Take `CC(C)(C)Oc1cccc2c1nc(-c1ccc(OCCC(=O)O)cc1Cl)n2Cc1cccc(Cl)c1` [Example T288, 3-(4-(4-(tert-butoxy)-1-(3-chlorobenzyl)-1H-benzo[d]imidazol-2-yl)-3-chlorophenoxy)propanoic acid]: the values for the IC50 in assay [1] (setting [11]) and in assay [2] (setting [12]) were 2000 nM and greater than 10000 nM, respectively.

The record behind these values is patent publication US20250195530A1, “POLQ INHIBITORS” (ASTRAZENECA AB, priority 2022, published 2025).
